Assay results reported in patent publication US20120034210A1, “COMPOSITIONS FOR POTENTIATING APOPOSIS SIGNALS IN TUMOUR CELLS” (INSTITUT BERGONIE, priority 2008, published 2012).
“Also recorded” adds a separate entry of the source.

Columns and labels:
[1] = tested on: DISC macro-complex (Fas/FADD/Caspase-8); assay: DISC formation: Fas immunoprecipitation and Western blot; type: cell-based, human; conditions: H9, Jurkat, activated PBTs; non-cytotoxic concentrations; vs untreated cells
Method: Cells were incubated with 1 μg/ml APO1-3 for 30 minutes at 4° C. After washing, cells were incubated for 15 minutes at 4° C. (0 minutes) or at 37° C. (15 minutes) and then lysed for 30 minutes at 4° C. in a lysis buffer (25 mM HEPES pH 7.4, 1% Triton X-100, 150 mM NaCl, 2 mM EDTA, a cocktail including protease inhibitors (Sigma)). The lysed cells were then centrifugated for 15 minutes at 15000 rpm in order to eliminate genomic DNA, and the supernatant was kept. The sepharose beads which were coupled with protein A were added to the lysate and the mixture was incubated for 2 hours. The beads were recovered, washed intensively and the immunoprecipitated proteins were re-suspended in a denaturing and reducing buffer (0.01M Tris-HCl pH6.8, 10% glycerol (v/v), 85 mM sodium dodecyl sulfate (SDS), 5% (v/v) […] and 0.005% (w/v) bromophenol blue) then heated at 100° C. for 5 minutes. The samples were deposited in an acrylamide/Bisacrylamide gel and separated by electrophoresis. The proteins were transferred from the gel into a nitrocellulose membrane using a semi-dry medium transfer technique for 2 hours at constant amperage (0.8 mA/cm^2). […] After transfer, the nitrocellulose membrane was saturated with proteins for 30 minutes with a TBST buffer (50 mM Tris pH=8, 0.15M sodium chloride, 0.05% (v/v) Tween-20) containing 5% (w/v) skimmed powdered milk (TBSTM). After washing with TBST, the membrane was incubated for 2 hours with the primary antibody in TBST. The membrane was washed intensively then incubated for one hour with TBST containing the secondary peroxidase-coupled antibody. […] This solution contained a substrate metabolised by peroxidase to yield a luminescent compound, which allowed marking a radiographic film (Amersham).

[2] = tested on: T and B leukemia/lymphoma cell lines and activated PBLs treated with FasL; assay: Fas/CD95-mediated cell death (MTT test); type: cell-based, human
Method: 2 to 4.10^4 cells were deposited in wells in a 96-well plate. The cells were incubated, in the presence of the different reactants for the times specified, at 37° C. in a final volume of 100 or 200 μl.
The MTT test enabled to measure the activity of a mitochondrial enzyme, the dehydrogenase succinate which transforms MTT (or 3-(4,5-dimethylthiazol-2-yl)-2,5-diphenyltetrazolium) bromide originally yellow in colour and soluble, into blue formazan crystals, insoluble in aqueous phase. Upon completion of the different treatments, the living cells were quantified by adding in each well 15 μl PBS (Phosphate Buffered Saline) containing 5 mg/ml MTT. […] Spectrophotometric reading of absorbance was done at 570 nm. The measurement of the optical density is directly proportional to the number of living cells and the percentage of cell death was calculated with the following formula: 100-[(DO treated cells/DO non-treated cells)*100].

[3] = tested on: intracellular calcium concentration; assay: Intracellular Ca2+ concentration, indo-1 (micro)spectrofluorimetry; type: cell-based, human
Method: Principle: [Ca^2+]i was measured by microspectrofluorimetry using a calcium sensitive fluorescent probe: indo-1. When excited at 360 nm wavelength, the so-called monoexcitation/double emission indo-1 probe transmitted back in a spectrum ranging from 400 to 500 nm. Binding of Ca^2+ to indo-1 caused displacement of the emission spectrum after excitation. The emission maximum in the unbound form was located around 480 nm. The emission of the complexed form was around 405 nm. An increase of calcium concentration thus caused the emission to increase to 405 nm and the emission to decrease to 480 nm. The ratio of both fluorescence intensities allowed to be independent from the quantity of the probe and to determine the [Ca^2+]i according to the Grynkiewicz equation:
[Ca^2+]i(nM)=Kd.β×(R−Rmin)/(Rmax−R)
Rmax, Rmin and Kd. β were determined by combining electrophysiology (patch clamp) and spectrofluorimetry. Rmax was determined by placing in the patch pipette a medium containing 10 mM CaCl2. Rmin was obtained by placing as an intrapipette solution a calcium-deprived medium (10 mM EGTA).
The cells were then rinsed with HBSS (800 rpm centrifugation for 2 minutes) and placed in an observation chamber on a glass coverslip. […] The excitation light is supplied by a Xenon lamp (100W). […] The substances to be tested were applied using a glass pipette positioned at some twenty μm of the studied cell and connected to a pneumatic system.
The principle as well as the loading of the cells were identical with the measurement on single cells. In such a case, approx. 40,000 cells were placed in a quartz tub under constant agitation. The tub was then placed in a Hitachi spectrofluorimeter whereof the excitation monochromator was set to 350 nm. […] The signals were transmitted to a computer via an analogue/digital converter. So as to be able to apply the Grynkiewicz equation (see above) and translate the fluorescence ratios measured in calcium values, the calibration parameters were entered into the software. The substances to be tested were applied directly in the tube under constant agitation.

[4] = tested on: CD95; assay: CD95 capping (CD95-CAP), fluorescence confocal microscopy; type: cell-based, human; conditions: leukemic cell lines; culture up to 24 hours
Method: The cells were left to adhere on a slide pre-treated with poly-L-lysin (ESCO, VWR) for 5 minutes then incubated with the different reactants. The cells activated with the anti-Fas APO1-3 agonist antibody were washed and marked directly with the anti-mouse secondary antibody coupled with Alexa555 fluorochrome. The cells incubated with Rituximab (anti-CD20) were washed in a cold PBS buffer then fixed with a PBS/4% PFA (paraformaldehyde) solution for 15 min. […] The cells were washed in PBS medium then the slide was dried and the cells were placed in a mounting medium, Fluoroprep (Biomerieux) and analysed by fluorescence confocal microscopy (LSM SP5, Leica, Germany) with an x63 zoom. The DAPI (200 ng/ml) allowed colouring the nuclei.

[5] = target: caspase-8; assay: Caspase-8 activation/cleavage; type: cell-based, human
[6] = tested on: CD95; assay: CD95 expression; type: cell-based, human; conditions: 2-APB or BAPTA-AM regimens
Method: This technique allowed detecting the presence of a protein on the cell surface. All the steps took place at 4° C. so as to reduce membrane proteins endocytosis and loss of cell labelling.
Plasma membrane of the cells (10^6 cells per marking) was saturated for 5 minutes in 1 ml PBS containing 1% (w/v) BSA (bovine serum albumin) and 1% (v/v) foetal veal serum (FVS). This solution was used for washings and antibody dilutions.
The cells were incubated for 30 minutes with 50 μl primary antibody (anti-Fas DX2 clone at 10 μg/ml), washed twice with the PBS/BSA/FCS solution, then incubated with 50 μl of a secondary antibody coupled with phycoerythrin for 30 minutes. After 3 washings, the cells were re-suspended in 200 μl PBS/BSA/SVF and analysed immediately by flow cytometry (FACsCalibur, BD Biosciences). The fluorescence intensity was analysed with the Cellquest software.

[7] = tested on: Raji, BL2, Jurkat cell lines and activated PBL; assay: Apoptosis % by loss of mitochondrial membrane potential; type: cell-based, human; conditions: Zoledronate 10 μM in vitro; BL2, Raji and Jurkat, respectively
Method: 2 to 4.10^4 cells were deposited in wells in a 96-well plate. The cells were incubated, in the presence of the different reactants for the times specified, at 37° C. in a final volume of 100 or 200 μl. The apoptotic cells were identified in the cellular populations by measuring mitochondrial de-polarisation. […] These potentiometric probes allowed monitoring the variations of the mitochondrial membrane potential. […] Following cell treatment with the different drugs, the former were placed in the presence of TMRM or DIOC6 at 10 nM concentration, for 20 minutes at 37° C. then the fluorescence of the cells was analysed by flow cytometry.

[8] = Mice calcemia after Zoledronate injection; type: in vivo; conditions: 4 mg/kg, one injection per week, 4 weeks, blood 3 days after last injection
Method: Blood samples were taken from mice 3 days after the last Zoledronate or vehicle injection and calcemia was assessed by COBAS INTEGRA Calcium® (Roche) micro-method.

[9] = tested on: Raji cells; assay: Raji B lymphoma tumour growth in Rag2-/-γ-/- mice; type: in vivo; conditions: Raji s.c.; single agent; Rituximab 2 mg/kg, Zoledronate 4 mg/kg
Method: The implantation of the tumours was done subcutaneously in Rag2−/−γ−/− mice flank aged from 5 to 7 weeks. Following implantation of the tumours, the mice were divided in groups of 8 to 10 animals for each treatment. The size of the tumour was assessed every day by measuring its width (w) and its length (I). Its volume was calculated according to the formula: V=lw^2/2. At the end of the experiment, the animals were sacrified, the tumour weight was measured.
From 10^6 Raji cells were implanted subcutaneously in mice flank. The effects of Rituximab alone, of Zoledronate alone, are assessed on the growth of tumours. Rituximab (2 mg/kg) was delivered 3 times a week, Zoledronate was delivered 1 time a week.

SMILES	DISC formation / FADD recruitment upon CD95 stimulation [1]	CD95-mediated apoptotic signal in CD95-resistant cells ([2]; Jurkat-CD95Q257K, pre-incubation with non-cytotoxic doses)	potentiation of FasL response ([2]; high doses of 2-APB (44 μM), T or B lymphoma/leukemic cell lines)	apoptotic signal by the agent alone ([2]; leukemic cell lines, long-term culture up to 24 hours, no CD95L)	increase in intracellular calcium induced by Thapsigargin and by extracellular calcium 0 to 5 mM ([3]; 2-APB 44 μM)	concentration of intracellular calcium ([3]; high doses of 2-APB, T or B lymphoma cell lines)	CD95-mediated peak of calcium ([3]; non-cytotoxic concentrations, CD95 stimulation)	basal [Ca2+]i ([3]; pre-incubation of cells)	CD95-CAP formation [4]	kinetic of caspase-8 cleavage upon CD95L ([5]; T and B-cell lines)	caspase-8 activation or mitochondrial depolarization by the agent alone ([5]; during 60 minutes treatment, no CD95L)	expression of CD95 [6]	potentiation of apoptotic response to TRAIL, RTX and FasL [7]	intracellular calcium concentration ([3]; Zoledronate in vitro, all model cell lines tested)	calcemia vs vehicle [8]	tumour mass vs vehicle [9]
NCCOB(c1ccccc1)c1ccccc1 [2-APB, 2-Aminoethoxydiphenyl borate]	dramatically improved the DISC formation; also recorded: induction of DISC formation	restored the CD95-mediated apoptotic signal at a level comparable to the parental cell line	potentiated FasL response; also recorded: sensitizes drastically the Fas apoptotic signal	did not trigger the apoptotic signal	reduced the increase in the intracellular calcium concentration	induced decreasing concentration of intracellular calcium	totally abrogated the CD95-mediated peak of calcium	induced a faint decrease in the basal [Ca^2+]i	drives CD95-CAP	accelerated the cleavage of the initiator caspase-8	no trace of caspase-8 activation or mitochondrial depolarization was detected	did not modify the expression of CD95				
O=P(O)(O)C(O)(Cn1ccnc1)P(=O)(O)O [Zoledronate, zoledronate]													does not potentiate the apoptotic response	did not affect intracellular calcium concentration	significant (p<0.05) decrease in their calcemia	not significantly affected
